Reference: ChEMBL document CHEMBL5233229, “Recent advances in the development of ubiquitin-specific-processing protease 7 (USP7) inhibitors” (Eur J Med Chem, 2020)

Assays:
[1] = molecular target: T1, Ubiquitin carboxyl-terminal hydrolase 7 (Homo sapiens, UniProt Q93009); test: Inhibition of human USP7 using Ub-AMC as substrate
[2] = molecular target: T2, Ubiquitin carboxyl-terminal hydrolase 47 (Homo sapiens, UniProt Q96K76); test: Inhibition of USP47 (unknown origin)
T2 sequence (Q96K76 whole entry): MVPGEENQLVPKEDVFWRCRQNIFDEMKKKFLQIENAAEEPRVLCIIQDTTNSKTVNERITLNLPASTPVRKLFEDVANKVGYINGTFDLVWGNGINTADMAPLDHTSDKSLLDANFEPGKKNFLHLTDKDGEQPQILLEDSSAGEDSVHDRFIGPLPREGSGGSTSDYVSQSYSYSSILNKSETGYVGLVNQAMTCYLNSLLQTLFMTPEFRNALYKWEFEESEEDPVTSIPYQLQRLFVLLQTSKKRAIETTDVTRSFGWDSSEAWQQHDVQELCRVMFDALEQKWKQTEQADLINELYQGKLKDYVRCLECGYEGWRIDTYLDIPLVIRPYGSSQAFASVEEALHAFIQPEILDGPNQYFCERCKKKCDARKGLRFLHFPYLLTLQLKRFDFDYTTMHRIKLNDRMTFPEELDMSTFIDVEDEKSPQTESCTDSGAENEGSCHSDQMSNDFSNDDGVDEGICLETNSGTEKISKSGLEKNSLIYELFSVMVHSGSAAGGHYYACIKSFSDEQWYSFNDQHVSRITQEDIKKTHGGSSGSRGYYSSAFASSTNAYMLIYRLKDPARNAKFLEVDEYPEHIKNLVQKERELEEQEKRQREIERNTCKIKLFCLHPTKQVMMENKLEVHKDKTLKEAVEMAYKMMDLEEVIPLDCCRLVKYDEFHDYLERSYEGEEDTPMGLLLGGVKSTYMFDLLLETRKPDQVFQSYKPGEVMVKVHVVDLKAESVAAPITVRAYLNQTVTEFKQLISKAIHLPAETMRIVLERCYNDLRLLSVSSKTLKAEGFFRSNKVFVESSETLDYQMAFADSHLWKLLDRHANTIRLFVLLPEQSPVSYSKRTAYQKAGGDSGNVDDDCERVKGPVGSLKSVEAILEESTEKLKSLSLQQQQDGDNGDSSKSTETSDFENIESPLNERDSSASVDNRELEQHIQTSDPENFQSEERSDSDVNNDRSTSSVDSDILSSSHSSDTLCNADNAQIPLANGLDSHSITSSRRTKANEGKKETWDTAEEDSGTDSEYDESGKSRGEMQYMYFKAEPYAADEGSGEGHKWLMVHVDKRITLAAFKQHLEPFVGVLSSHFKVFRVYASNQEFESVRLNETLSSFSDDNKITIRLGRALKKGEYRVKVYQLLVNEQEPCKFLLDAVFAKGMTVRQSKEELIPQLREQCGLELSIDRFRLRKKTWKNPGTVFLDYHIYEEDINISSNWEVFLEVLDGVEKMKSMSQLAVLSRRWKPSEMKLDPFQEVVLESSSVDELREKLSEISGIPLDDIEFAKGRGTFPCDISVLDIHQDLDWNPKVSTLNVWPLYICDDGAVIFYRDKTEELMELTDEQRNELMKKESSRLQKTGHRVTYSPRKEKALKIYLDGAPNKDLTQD

[3] = molecular target: T3, Ubiquitin carboxyl-terminal hydrolase 8 (Homo sapiens, UniProt P40818); test: Inhibition of USP8 (unknown origin)
T3 sequence (P40818 whole entry): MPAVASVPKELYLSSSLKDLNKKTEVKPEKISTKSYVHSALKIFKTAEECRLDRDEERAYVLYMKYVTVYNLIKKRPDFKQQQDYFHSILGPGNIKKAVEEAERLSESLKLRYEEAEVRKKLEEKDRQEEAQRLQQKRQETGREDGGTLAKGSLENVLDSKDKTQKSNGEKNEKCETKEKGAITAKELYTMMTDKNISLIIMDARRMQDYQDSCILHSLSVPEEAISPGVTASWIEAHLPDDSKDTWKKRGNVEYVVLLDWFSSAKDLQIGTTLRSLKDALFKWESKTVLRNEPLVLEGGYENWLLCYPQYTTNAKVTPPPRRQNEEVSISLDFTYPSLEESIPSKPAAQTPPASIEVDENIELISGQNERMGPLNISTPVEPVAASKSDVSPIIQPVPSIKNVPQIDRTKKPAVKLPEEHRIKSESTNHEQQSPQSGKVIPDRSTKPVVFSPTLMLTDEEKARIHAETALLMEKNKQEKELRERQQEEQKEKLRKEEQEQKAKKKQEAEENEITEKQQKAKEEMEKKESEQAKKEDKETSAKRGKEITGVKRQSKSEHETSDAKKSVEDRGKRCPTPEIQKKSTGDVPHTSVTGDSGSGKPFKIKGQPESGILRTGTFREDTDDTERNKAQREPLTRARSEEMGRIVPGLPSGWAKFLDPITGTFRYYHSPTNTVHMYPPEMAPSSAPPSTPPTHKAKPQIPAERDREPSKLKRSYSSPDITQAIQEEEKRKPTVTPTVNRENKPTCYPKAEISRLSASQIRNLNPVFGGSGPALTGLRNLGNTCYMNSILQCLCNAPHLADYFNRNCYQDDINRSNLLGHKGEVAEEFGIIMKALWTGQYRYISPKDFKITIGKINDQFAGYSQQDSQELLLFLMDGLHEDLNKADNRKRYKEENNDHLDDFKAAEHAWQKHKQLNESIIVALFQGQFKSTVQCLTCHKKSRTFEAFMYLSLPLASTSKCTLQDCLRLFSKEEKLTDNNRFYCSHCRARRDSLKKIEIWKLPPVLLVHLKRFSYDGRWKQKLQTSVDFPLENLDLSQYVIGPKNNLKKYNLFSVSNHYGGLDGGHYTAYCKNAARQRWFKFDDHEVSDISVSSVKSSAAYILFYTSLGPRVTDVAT

[4] = molecular target: T4, Ubiquitin carboxyl-terminal hydrolase 2 (Homo sapiens, UniProt O75604); test: Inhibition of human USP2 (258 to 605 residues) catalytic domain by fluorescence based assay
T4 sequence (O75604 whole entry): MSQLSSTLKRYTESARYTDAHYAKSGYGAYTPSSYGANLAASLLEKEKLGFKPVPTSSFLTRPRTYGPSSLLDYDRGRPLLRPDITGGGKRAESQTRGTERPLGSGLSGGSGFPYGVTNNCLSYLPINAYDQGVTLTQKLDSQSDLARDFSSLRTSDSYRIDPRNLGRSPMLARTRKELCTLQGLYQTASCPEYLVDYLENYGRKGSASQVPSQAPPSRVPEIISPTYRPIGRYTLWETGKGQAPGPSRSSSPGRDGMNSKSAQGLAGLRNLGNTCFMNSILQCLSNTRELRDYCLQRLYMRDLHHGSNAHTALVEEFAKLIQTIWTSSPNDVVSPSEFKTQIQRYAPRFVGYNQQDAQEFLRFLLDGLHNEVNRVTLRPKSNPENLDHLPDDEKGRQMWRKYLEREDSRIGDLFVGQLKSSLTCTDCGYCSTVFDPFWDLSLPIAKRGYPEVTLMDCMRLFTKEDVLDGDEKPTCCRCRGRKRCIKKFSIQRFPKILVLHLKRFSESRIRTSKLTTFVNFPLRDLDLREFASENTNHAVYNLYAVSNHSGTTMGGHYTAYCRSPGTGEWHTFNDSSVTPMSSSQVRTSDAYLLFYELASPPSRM

[5] = molecular target: T5, Ubiquitin carboxyl-terminal hydrolase 28 (Homo sapiens, UniProt Q96RU2); test: Inhibition of USP28 (unknown origin) using […] as substrate by […] analysis
T5 sequence (Q96RU2 whole entry): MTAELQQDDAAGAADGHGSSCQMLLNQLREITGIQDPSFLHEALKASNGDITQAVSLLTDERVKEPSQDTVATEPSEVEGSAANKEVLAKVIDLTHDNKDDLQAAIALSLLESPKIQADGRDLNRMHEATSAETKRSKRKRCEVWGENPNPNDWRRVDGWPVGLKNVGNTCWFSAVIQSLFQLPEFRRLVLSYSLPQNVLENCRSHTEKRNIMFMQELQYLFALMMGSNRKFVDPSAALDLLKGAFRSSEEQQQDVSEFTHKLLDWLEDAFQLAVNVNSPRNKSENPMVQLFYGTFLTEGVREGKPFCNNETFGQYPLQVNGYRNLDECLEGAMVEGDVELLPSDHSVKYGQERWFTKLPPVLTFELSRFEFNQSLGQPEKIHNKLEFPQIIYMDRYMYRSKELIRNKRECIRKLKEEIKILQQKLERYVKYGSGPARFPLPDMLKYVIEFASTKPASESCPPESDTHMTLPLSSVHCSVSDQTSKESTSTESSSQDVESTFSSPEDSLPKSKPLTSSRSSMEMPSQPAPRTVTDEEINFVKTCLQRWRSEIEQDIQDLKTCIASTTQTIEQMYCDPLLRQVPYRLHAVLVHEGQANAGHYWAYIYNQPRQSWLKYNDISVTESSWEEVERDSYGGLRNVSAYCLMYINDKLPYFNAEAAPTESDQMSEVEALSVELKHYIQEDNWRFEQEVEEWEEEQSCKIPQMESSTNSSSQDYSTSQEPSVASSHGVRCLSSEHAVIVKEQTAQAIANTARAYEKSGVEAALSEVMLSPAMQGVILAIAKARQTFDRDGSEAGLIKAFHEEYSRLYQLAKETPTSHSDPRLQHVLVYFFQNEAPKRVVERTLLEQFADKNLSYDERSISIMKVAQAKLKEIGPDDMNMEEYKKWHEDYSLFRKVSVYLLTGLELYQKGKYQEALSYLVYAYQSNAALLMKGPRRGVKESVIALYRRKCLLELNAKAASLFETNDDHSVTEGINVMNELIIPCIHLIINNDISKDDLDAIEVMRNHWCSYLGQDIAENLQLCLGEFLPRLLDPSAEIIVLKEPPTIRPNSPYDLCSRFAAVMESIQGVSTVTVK

[6] = molecular target: T6, Ubiquitin carboxyl-terminal hydrolase 25 (Homo sapiens, UniProt Q9UHP3); test: Inhibition of USP25 (unknown origin) using […] as substrate by […] analysis
T6 sequence (Q9UHP3 whole entry): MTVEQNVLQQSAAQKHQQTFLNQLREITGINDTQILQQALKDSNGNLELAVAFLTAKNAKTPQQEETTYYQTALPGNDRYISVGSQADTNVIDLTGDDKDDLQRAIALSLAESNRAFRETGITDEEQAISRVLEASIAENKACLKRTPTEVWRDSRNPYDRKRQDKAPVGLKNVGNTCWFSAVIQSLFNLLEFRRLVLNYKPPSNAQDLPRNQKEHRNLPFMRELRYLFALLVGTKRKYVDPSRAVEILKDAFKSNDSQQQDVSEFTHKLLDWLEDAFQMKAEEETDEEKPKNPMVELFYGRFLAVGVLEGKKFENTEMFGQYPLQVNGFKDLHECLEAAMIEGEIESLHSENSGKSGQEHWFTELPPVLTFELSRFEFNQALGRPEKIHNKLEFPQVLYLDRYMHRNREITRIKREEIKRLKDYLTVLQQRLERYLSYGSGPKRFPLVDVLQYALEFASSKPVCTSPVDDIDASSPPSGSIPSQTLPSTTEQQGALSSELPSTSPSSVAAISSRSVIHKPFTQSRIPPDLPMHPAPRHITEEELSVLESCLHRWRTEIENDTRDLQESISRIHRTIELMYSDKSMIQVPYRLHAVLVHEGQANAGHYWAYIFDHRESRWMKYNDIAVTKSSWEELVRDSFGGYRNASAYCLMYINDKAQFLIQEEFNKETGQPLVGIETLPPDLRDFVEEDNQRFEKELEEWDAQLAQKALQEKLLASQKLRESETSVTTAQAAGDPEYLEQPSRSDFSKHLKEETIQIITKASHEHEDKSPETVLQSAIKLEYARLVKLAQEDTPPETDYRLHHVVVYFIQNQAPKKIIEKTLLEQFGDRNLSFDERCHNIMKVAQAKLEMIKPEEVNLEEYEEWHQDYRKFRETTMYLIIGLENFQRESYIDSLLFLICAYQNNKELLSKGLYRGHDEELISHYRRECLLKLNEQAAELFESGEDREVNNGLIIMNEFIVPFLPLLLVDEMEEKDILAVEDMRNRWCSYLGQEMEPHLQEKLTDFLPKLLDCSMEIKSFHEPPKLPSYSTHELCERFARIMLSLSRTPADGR

[7] = molecular target: T7, Ubiquitin carboxyl-terminal hydrolase 2 (Homo sapiens) (UniProt O75604); test: Inhibition of human USP2 (258 to 605 residues) catalytic domain assessed as inhibition constant by fluorescence based assay
T7 sequence (whole entry): T4 sequence (O75604 whole entry)

[8] = molecular target: T1, Ubiquitin carboxyl-terminal hydrolase 7; test: Inhibition of USP7 (unknown origin)
[9] = molecular target: T1, Ubiquitin carboxyl-terminal hydrolase 7; test: Inhibition of human USP7 using ubiquitin-Rho110 as substrate incubated for 1 hrs

T1 sequence (Q93009 whole entry): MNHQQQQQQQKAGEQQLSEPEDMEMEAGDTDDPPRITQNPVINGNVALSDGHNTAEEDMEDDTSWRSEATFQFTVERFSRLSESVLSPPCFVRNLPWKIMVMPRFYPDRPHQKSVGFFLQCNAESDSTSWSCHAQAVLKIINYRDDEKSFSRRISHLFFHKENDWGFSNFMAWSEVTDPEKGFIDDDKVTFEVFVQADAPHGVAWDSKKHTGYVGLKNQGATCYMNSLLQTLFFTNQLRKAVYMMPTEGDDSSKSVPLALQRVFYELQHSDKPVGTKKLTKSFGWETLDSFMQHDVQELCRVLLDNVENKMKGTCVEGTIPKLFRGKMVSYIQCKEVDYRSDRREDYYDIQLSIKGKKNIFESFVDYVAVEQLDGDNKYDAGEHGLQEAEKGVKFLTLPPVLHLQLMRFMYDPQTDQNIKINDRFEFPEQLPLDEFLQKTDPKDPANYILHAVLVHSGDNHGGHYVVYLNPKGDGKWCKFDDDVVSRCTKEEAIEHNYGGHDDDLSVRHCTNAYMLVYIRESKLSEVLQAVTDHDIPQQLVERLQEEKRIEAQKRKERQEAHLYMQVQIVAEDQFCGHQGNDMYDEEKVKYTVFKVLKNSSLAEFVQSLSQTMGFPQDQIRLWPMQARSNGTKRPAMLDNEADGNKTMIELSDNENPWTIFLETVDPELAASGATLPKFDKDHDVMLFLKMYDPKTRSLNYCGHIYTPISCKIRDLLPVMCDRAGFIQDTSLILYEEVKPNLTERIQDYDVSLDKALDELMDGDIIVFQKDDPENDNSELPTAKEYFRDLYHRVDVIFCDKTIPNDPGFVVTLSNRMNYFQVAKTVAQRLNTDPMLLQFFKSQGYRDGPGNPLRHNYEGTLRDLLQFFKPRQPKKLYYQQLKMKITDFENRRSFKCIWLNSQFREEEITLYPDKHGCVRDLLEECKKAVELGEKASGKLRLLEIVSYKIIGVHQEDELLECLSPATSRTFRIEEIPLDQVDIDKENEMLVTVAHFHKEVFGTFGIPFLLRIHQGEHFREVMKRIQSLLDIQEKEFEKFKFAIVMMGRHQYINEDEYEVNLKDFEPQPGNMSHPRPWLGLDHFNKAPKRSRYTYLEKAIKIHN

Compound: N#Cc1nc2c(nc1C#N)-c1ccc(Cl)cc1C2=O
- IC50 [1]: 400 nM
- IC50 [2]: 400 nM
- IC50 [3]: 960 nM

Compound: CO/C(O)=C(\C#N)c1nc2c(nc1C#N)C(=O)c1ccccc1-2
- IC50 [2]: > 100000 nM
- IC50 [3]: > 100000 nM

Compound: Sc1ncnc2nc[nH]c12 [MERCAPTOPURINE ANHYDROUS]
- IC50 [4]: > 100000 nM

Compound: OCCNCc1cc(Br)ccc1OCc1cccc(OC(F)(F)F)c1
- IC50 [5]: 1100 nM
- IC50 [6]: 880 nM

Compound: Nc1nc2[nH]cnc2c(=S)[nH]1
- Kis [7]: 24.6 µM

Compound: OCCNCc1cc(Br)ccc1OCc1ccccc1
- IC50 [5]: 59600 nM
- IC50 [6]: 52500 nM

Compound: CC(=O)c1cc([N+](=O)[O-])c(Sc2c(Cl)cncc2Cl)s1
- IC50 [8]: 2000 nM

Compound: Nc1nc2nc[nH]c2c(=S)[nH]1 [THIOGUANINE]
- IC50 [4]: 42000 nM

Compound: CC(=O)Nc1cccc(-c2cnc(N)c(-c3ccc(O)cc3)c2C)c1
- IC50 [9]: 42000 nM

Compound: OCCNCc1cc(Br)ccc1OCc1cc(F)c(F)cc1F
- IC50 [5]: 2000 nM

Compound: CCc1c(-c2cccc(NC(C)=O)c2)cnc(N)c1-c1cccs1
- IC50 [9]: > 63300 nM
